Test results: patent US20250205234A1, “ANTI-TUBERCULAR COMPOSITIONS” (priority 2022, published 2025)
Converted amounts (≈) assume the structure as drawn. Where two headings read alike, the source gives them in different places.

Columns and labels:
[1] = tested on: M. smegmatis F-ATP synthase; type: biochemical; details: for Inhibition of ATP synthesis of reconstituted MsF-ATP synthase: compound at its IC50 concentration (BDQ 4 nM; GaMF1.39 90 nM)
E. coli UTI 189 = test: Biofilm assay, E. coli; type: cell-based, Escherichia coli; details: 3 h pre-formed biofilm; 3-9 μM GaMF1.39 or 1-3 μM BDQ; PBS or M9 glucose media
P. aeruginosa PAO1 WT = test: Biofilm assay, P. aeruginosa; type: cell-based, Pseudomonas aeruginosa; details: 3 h pre-formed biofilm; 3-9 μM GaMF1.39 or 1-3 μM BDQ; PBS or M9 glucose media
M. bovis BCG [2] = test: microbe, parasite or virus in culture; type: cell-based; details: for MIC: Mycobacterium tuberculosis variant bovis BCG, BCG
M. smegmatis mc^2 155 = type: cell-based
[3] = tested on: transmembrane pH gradient of mycobacterial IMVs; test: Proton translocation / uncoupling assay in IMVs (ACMA fluorescence quenching); type: biochemical, M. smegmatis; details: 2 mM NADH, uncoupler SF6847 as positive control
M. bovis BCG [4] = test: microbe, parasite or virus in culture; type: cell-based; details: Mycobacterium tuberculosis variant bovis BCG, 120 h, read-out: minimal inhibitory concentration (MIC50)
zebrafish embryos = test: Toxicity testing using zebrafish embryos; type: in vivo; details: 9 μM, 48 hpf embryos, 5 days
Protocol: Zebrafish care and ethics statement: All Zebrafish experiments were approved by the NTU Institutional Animal Care and Use Committee under reference no #A20038. Experiments were done using wild-type AB zebrafish. The ages of the embryos are shown in hours post fertilization (hpf).
Dechorionated zebrafish wild-type embryos at 48 hpf (n=120) were used. The embryos were immersed respectively in 5 ml of E3 medium containing GaMF1.39 in 6-well plate for 5 days. DMSO was used as vehicle control. The embryos were observed under a microscope. […] The experiment was repeated twice with three replicates each.

[5] = tested on: mycobacterial F-ATP synthase; details: IMVs of M. smegmatis, NADH; read-out: IC50 NADH-driven ATP synthesis of IMVs; cited from earlier work
Mtb = details: Hotra et al. 2020; cited from earlier work
[6] = biological target: mycobacterial F-ATP synthase (Mycobacterium bovis, UniProt A1KI93+A1KI97); details: read-out: IC50 NADH-driven ATP synthesis of IMVs, IMVs of M. bovis BCG; cited from earlier work
Sequence of mycobacterial F-ATP synthase (Mycobacterium bovis, UniProt A1KI93+A1KI97) (A1KI93 whole entry, looked up): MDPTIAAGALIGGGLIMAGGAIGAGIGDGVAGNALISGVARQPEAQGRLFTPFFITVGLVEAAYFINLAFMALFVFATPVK
Sequence of mycobacterial F-ATP synthase (Mycobacterium bovis, UniProt A1KI93+A1KI97) (A1KI97 whole entry, looked up): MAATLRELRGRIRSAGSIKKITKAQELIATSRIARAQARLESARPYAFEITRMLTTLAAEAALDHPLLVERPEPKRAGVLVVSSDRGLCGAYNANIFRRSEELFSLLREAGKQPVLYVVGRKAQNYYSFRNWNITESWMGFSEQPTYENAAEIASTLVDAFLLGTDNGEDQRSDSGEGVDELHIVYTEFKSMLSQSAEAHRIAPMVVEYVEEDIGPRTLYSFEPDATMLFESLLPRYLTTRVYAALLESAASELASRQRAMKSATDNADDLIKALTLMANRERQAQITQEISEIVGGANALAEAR

[7] = Microsomal stability assay; type: in vitro ADME; details: pH 7.4; mouse liver microsomes
Protocol: Microsomal stability assay were outsourced and performed by Bioduro-Sundia Ltd, USA based on the following protocol as done in Obach, R. S., Drug Metab. Dispos., 1999, 27, 1350; McGinnity, D. F. & Riley, R. J., Biochem. Soc. Trans., 2001, 29, 135. Working solutions of each compound are prepared from 10 mM stock solution in DMSO diluted to a final concentration of 100 μM in 0.05 M phosphate buffer (pH 7.4). Aliquots of Liver Microsome working solution are transferred into 1.1 mL tubes using a multichannel pipette. Positive control (5 mixed) and test compound working solutions are transferred into the tubes. The mixtures are vortexed gently and then pre-incubated at 37° C. 5 mM NADPH were aliquoted into the tubes using a multichannel pipette and vortexed gently. At each time point of 0 min, 5 min, 15 min, 30 min and 60 min with NADPH or 0, 30 min and 60 min without NADPH, an aliquot is removed from each tube. […] Each compound is analyzed by reversed phase HPLC using a Kinetex 2.6μ C18 100 Å column (3.0 mm×30 mm, Phenomenex). […] The amount of parent compound is determined on the basis of the peak area ratio (compound area to IS area) for each time point. The estimation of Clint (in μL/min/mg protein) is calculated using the following equation: CLint (μLmin^−1 mg^−1)=ln(2)*1000/t1/2/protein concentration

M. bovis BCG cells = test: microbe, parasite or virus in culture; type: cell-based; details: Mycobacterium tuberculosis variant bovis BCG, read-out: IC50 intracellular ATP inhibition
M. bovis BCG [8] = type: cell-based; details: 7 μM, 96 h, methylene blue
[9] = biological target: M. smegmatis 166M c-subunit mutant IMVs (Mycolicibacterium smegmatis, UniProt A0R201+A0R205+A0R206, I70M); test: biochemical; details: read-out: IC50 ATP synthesis, 166M mutant IMVs
M. bovis BCG [10] = type: cell-based
[11] = tested on: M. tuberculosis H37Rv-infected THP-1 cells; test: THP-1 macrophage infection model, intracellular efficacy

## COc1nc2ccc(Br)cc2cc1[C@@H](c1ccccc1)[C@@](O)(CCN(C)C)c1cccc2ccccc12 [BDQ, bedaquiline, reference compound]
[1]
  Inhibition of ATP synthesis of reconstituted MsF-ATP synthase: ~51%
E. coli UTI 189
  Killing of planktonic or biofilm cells: No significant differences
P. aeruginosa PAO1 WT
  Killing of planktonic or biofilm cells: No significant differences

## CC(C)/N=c1\cc2n(-c3ccc(Cl)cc3)c3ccccc3nc-2cc1Nc1ccc(Cl)cc1 [Clofazamine, clofazimine]
M. bovis BCG [2]; Clofazamine alone
  MIC Drug B alone: 0.25 µM (≈ 0.118 µg/mL)
M. bovis BCG [2]; Clofazamine in combination with GaMF1.39
  MIC Drug B in combination: 0.125 µM

## CCNc1cc(C)nc(Nc2ccc3nc(-c4ccc(Cl)cc4)[nH]c3c2)n1 [GaMF1.39]
M. smegmatis mc^2 155
  Killing of M. smegmatis mc^2 155: killed
[3]
  Uncoupled proton pumping (ACMA quenching): lacked the ability to induce uncoupled proton pumping
M. bovis BCG [4]
  MIC50: 6.8 µM (≈ 2.58 µg/mL)
Zebrafish embryos
  Toxicity in zebrafish embryos (survival): no signs of toxicity-induced killing
[1]; GaMF1.39 at its IC50 concentration, no compound 35.2±2.3
  ATP synthesis activity of reconstituted MsF-ATP synthase with compound: 20.5±2.6 nmol·min^−1 (mg protein)^−1
[1]
  Inhibition of ATP synthesis of reconstituted MsF-ATP synthase: 42%
[5]
  IC50: 0.09 ± 0.0011 µM
E. coli UTI 189
  Killing of planktonic or biofilm cells: no killing of planktonic or biofilm cells
Mtb
  MIC50 against Mtb: 3.0 µM (≈ 1.14 µg/mL)
[6]
  IC50: 0.0516 ± 0.00135 µM
[7]
  half-life: 29.6 min
  microsomal CLint: 46.8 µL/min/mg
M. bovis BCG cells
  IC50: 3.3 µM
M. bovis BCG [8]
  Oxygen consumption within the respiratory chain: unaffected
M. bovis BCG [2]; GaMF1.39 in combination with Clofazamine
  MIC Drug A in combination: 3 µM
M. bovis BCG [2]; GaMF1.39 in combination with Q203
  MIC Drug A in combination: 0.23 µM
M. bovis BCG [2]; 144 h, read-out: MIC Drug A alone
  MIC: 6.8 µM (≈ 2.58 µg/mL)
P. aeruginosa PAO1 WT
  Killing of planktonic or biofilm cells: no killing of planktonic or biofilm cells
[9]
  IC50: 0.064 µM
M. bovis BCG [10]; 8-fold its MIC50, up to 6 days, CFU
  Killing efficiency against M. bovis BCG: more efficient than its parental molecule GaMF1
M. bovis BCG [10]; GaMF1.39 10×MIC50, with or without Q203 100 nM, t=10 days
  Growth of M. bovis BCG cultures in killing kinetics experiment: inhibited the growth of M. bovis cells even after 10 days
[11]; 3 and 9 μM, compared with initial inoculum (day 0)
  Intracellular efficacy, viable bacterial count (CFU/ml): showed a decrease in viable bacterial count
[11]; THP-1 macrophages treated with GaMF1.39
  Alteration of infected macrophages (microscopy): did not show any visible optical alteration of the membrane, cell form or cell size

## CCc1nc2ccc(Cl)cn2c1C(=O)NCc1ccc(N2CCC(c3ccc(OC(F)(F)F)cc3)CC2)cc1 [Q203, Telacebec]
M. bovis BCG [2]; read-out: MIC Drug B alone
  MIC: 0.001 µM (≈ 0.000557 µg/mL)
M. bovis BCG [2]; Q203 in combination with GaMF1.39
  MIC Drug B in combination: 0.0005 µM
